Where two headings read alike, the source gives them in different places.
Assays:
A549 cells = test: MTT antiproliferative assay, A549; type: cell-based; settings: Homo sapiens, 72 h;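 note: formazan read-out dissolved in DMSO, each compound assayed three times, IC50 computed with Bliss software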
Method: The cell lines used in the experiment were available from the Cell Culture Collection of Chinese Academy of Sciences (Shanghai Institutes for Biological Sciences, Chinese Academy of Sciences). […] The formazan crystals were dissolved in 100 µl of DMSO in each well. […] All compounds were tested three times in each of the cell lines. The results, expressed as inhibition rates or IC50 (half-maximal inhibitory concentration), were the averages of two determinations and calculated by using the Bacus Laboratories Incorporated Slide Scanner (Bliss) software.

MCF-7 cells = test: MTT antiproliferative assay, MCF-7; type: cell-based; settings: Homo sapiens, read-out: IC50 MCF-7
Method: (§1) The cell lines used in the experiment were available from the Cell Culture Collection of Chinese Academy of Sciences (Shanghai Institutes for Biological Sciences, Chinese Academy of Sciences). Referring to the previous experimental methods of our research, all cells were cultured in suitable medium such as DMEM or RPMI-1640 containing 10% fetal bovine serum at 37°C in 5% CO2 and propagated for 24 h. Then the compounds with different gradient concentrations were added into the medium and incubated for 72 h, and then MTT (thiazolyl blue tetrazolium bromide) with a concentration of 5 µg/ml was added to every well for 4 h at 37°C. The formazan crystals were dissolved in 100 µl of DMSO in each well. The absorbancy at 492 nm (for absorbance of MTT formazan) and 630 nm (for the reference wavelength) was measured with an ELISA reader. All compounds were tested three times in each of the cell lines. The results, expressed as inhibition rates or IC50 (half-maximal inhibitory concentration), were the averages of two determinations and calculated by using the Bacus Laboratories Incorporated Slide Scanner (Bliss) software.

Hela cells = test: MTT antiproliferative assay, Hela; type: cell-based; settings: Homo sapiens, 72 h, read-out: IC50 Hela
Method: as §1

c-Met kinase = c-Met kinase (Homo sapiens, UniProt P08581); test: c-Met kinase inhibition assay; type: biochemical
Method: The kinase assay was performed by Pratzer Biotechnology Co. Ltd. (Changsha, China).

PC-9 cells = test: Antiproliferative activity, PC-9; type: cell-based; settings: Homo sapiens
Method: as §1

H460 cells = test: Antiproliferative activity, H460; type: cell-based; settings: Homo sapiens, NCI-H460
Method: as §1

H1975 cells = test: Antiproliferative activity, H1975; type: cell-based; settings: Homo sapiens, NCI-H1975
Method: as §1

c-Met kinase, sequence (P08581 25-1390): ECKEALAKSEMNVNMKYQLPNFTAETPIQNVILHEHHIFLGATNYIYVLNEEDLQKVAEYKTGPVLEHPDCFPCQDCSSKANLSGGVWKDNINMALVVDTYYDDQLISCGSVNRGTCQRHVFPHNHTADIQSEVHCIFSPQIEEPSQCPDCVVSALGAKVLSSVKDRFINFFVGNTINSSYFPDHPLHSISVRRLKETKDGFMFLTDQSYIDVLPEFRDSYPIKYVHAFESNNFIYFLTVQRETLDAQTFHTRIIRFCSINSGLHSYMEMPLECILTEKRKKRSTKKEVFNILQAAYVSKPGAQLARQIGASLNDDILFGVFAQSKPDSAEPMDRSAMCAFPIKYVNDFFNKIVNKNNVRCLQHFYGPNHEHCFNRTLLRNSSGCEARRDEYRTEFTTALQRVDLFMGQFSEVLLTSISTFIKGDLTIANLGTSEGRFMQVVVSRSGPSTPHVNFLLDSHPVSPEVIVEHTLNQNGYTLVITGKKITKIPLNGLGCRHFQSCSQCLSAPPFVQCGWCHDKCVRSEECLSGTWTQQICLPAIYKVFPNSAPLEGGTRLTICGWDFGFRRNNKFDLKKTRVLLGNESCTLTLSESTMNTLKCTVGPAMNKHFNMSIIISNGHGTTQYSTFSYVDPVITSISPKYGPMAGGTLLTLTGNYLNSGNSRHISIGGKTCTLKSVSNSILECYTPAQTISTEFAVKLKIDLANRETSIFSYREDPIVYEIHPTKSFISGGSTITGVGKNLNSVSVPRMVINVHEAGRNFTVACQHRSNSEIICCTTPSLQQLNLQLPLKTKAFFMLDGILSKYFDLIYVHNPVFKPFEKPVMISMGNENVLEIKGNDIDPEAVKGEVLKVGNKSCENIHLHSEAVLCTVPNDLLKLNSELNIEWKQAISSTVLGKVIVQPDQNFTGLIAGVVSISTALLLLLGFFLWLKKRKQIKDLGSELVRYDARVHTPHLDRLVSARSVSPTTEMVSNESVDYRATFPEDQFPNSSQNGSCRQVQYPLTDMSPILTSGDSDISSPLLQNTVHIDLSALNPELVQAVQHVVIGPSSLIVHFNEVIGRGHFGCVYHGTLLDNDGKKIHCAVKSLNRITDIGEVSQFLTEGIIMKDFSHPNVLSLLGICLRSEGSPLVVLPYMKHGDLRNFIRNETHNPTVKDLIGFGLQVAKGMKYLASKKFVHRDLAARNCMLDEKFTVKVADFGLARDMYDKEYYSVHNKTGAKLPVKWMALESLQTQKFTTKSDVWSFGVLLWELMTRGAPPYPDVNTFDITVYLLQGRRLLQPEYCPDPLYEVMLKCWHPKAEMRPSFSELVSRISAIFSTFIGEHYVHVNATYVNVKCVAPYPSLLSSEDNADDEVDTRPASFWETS

Compound	IC50 (A549 cells) [µM]	IC50 (MCF-7 cells; MCF7, MTT, 72 h, MCF-7 cells) [µM]	IC50 (Hela cells; MTT, Hela cells) [µM]	IC50 (c-Met kinase) [µM]	melting point [°C]	IC50 (MCF-7 cells; MCF7, 72 h) [µM]	IC50 (Hela cells; HeLa) [µM]	IC50 (PC-9 cells) [µM]	IC50 (H460 cells) [µM]	IC50 (H1975 cells) [µM]
Cc1nc(-c2ccccn2)sc1C(=O)Nc1ccc(Oc2nccn3c(C)nnc23)c(F)c1 [17 h]	3.56 ± 0.32	4.25 ± 0.76	7.43 ± 0.38	0.156	–	–	–	–	–	–
Cc1nc(-c2cccnc2)sc1C(=O)Nc1ccc(Oc2nccn3cnnc23)c(F)c1 [16i]	17.4 ± 0.97	19 ± 1.32	25 ± 2.17	–	–	–	–	–	–	–
Cc1nc(-c2cccnc2)sc1C(=O)Nc1ccc(Oc2nccn3c(C)nnc23)c(F)c1 [17i]	188	25.4 ± 1.54	> 50	–	220.7 to 223.1	–	–	–	–	–
Cc1nc(-c2ccncc2)sc1C(=O)Nc1ccc(Oc2nccn3cnnc23)c(F)c1 [16j]	3.26 ± 0.67	3.68 ± 0.34	6.17 ± 0.58	0.11	226.9 to 229.1	–	–	–	–	–
Cc1nc(-c2ccccn2)sc1C(=O)Nc1ccc(Oc2nccn3cnnc23)cc1 [16b]	6.46 ± 0.33	7.87 ± 0.42	12.2 ± 1.08	0.379	–	–	–	–	–	–
Cc1nc(-c2ccccc2)sc1C(=O)Nc1ccc(Oc2nccn3cnnc23)cc1 [16a]	12.4 ± 0.97	13.8 ± 1.23	21.5 ± 1.78	0.794	265.8 to 268.1	–	–	–	–	–
Cc1nc(-c2ccccc2)sc1C(=O)Nc1ccc(Oc2nccn3c(C)nnc23)cc1 [17a]	1.23 ± 0.13	1.43 ± 0.21	2.31 ± 0.29	0.055	–	–	–	–	–	–
Cc1nc(-c2ccccn2)sc1C(=O)Nc1ccc(Oc2nccn3c(C)nnc23)cc1 [17b]	4.31 ± 0.49	5.15 ± 0.72	9.46 ± 0.58	0.245	–	–	–	–	–	–
Cc1nc(-c2ccncc2)sc1C(=O)Nc1ccc(Oc2nccn3c(C)nnc23)c(F)c1 [17j]	7.16 ± 0.45	7.31 ± 0.77	14.2 ± 1.64	0.45	–	–	–	–	–	–
O=C(Nc1ccc(Oc2nccn3cnnc23)cc1)c1cnn(-c2ccc(Cl)cc2)c1C(F)(F)F [16d]	12.3 ± 0.98	11.5 ± 1.06	19.5 ± 1.94	0.722	261.3 to 263.5	–	–	–	–	–
Cc1nc(-c2ccncc2)sc1C(=O)Nc1ccc(Oc2nccn3cnnc23)cc1 [16c]	5.58 ± 0.75	6.45 ± 0.81	14.3 ± 1.15	0.345	235.6 to 237.5	–	–	–	–	–
COc1cc2c(Oc3ccc(NC(=O)C4(C(=O)Nc5ccc(F)cc5)CC4)cc3F)ccnc2cc1OCCCN1CCOCC1 [Foretinib, foretinib, reference compound]	–	–	–	–	–	0.93 ± 0.09	1.18 ± 0.25	–	–	–
CNC(=O)c1cc(Oc2ccc(NC(=O)Nc3ccc(Cl)c(C(F)(F)F)c3)cc2)ccn1 [Sorafenib, sorafenib, reference compound]	–	–	–	–	–	–	–	5.41 ± 0.73	5.27 ± 0.72	10.2 ± 1
Cc1nc(-c2ccc(F)cc2)sc1C(=O)Nc1ccc(Oc2nccn3c(C)nnc23)cc1 [17d]	5.21 ± 0.37	6.95 ± 0.67	10.7 ± 1.42	0.289	–	–	–	–	–	–
O=C(Nc1ccc(Oc2nccn3cnnc23)cc1)c1cc(-c2cccs2)no1 [16f]	27.3 ± 0.86	> 50	> 50	> 1	291.5 to 293.1	–	–	–	–	–
Cc1nnc2c(Oc3ccc(NC(=O)c4cnn(-c5ccc(Cl)cc5)c4C(F)(F)F)cc3)nccn12 [17e]	2.05 ± 0.19	1.74 ± 0.22	4.78 ± 0.43	0.077	–	–	–	–	–	–
O=C(Nc1ccc(Oc2nccn3cnnc23)cc1)c1cc(-c2cccs2)n[nH]1 [16e]	5.44 ± 0.42	7.13 ± 0.63	11.2 ± 0.96	0.342	–	–	–	–	–	–
Cc1nnc2c(Oc3ccc(NC(=O)c4cc(-c5cccs5)n[nH]4)cc3)nccn12 [17f]	5.73 ± 0.54	6.38 ± 0.85	12.4 ± 1.53	0.3	275.6 to 278.1	–	–	–	–	–
Cc1nc(-c2ccc(F)cc2)sc1C(=O)Nc1ccc(Oc2nccn3c(C)nnc23)c(F)c1 [17 k]	15.3 ± 0.51	18.2 ± 1.28	25.3 ± 2.4	–	–	–	–	–	–	–
Cc1nc(-c2ccccc2)sc1C(=O)Nc1ccc(Oc2nccn3c(C)nnc23)c(F)c1 [17 g]	–	–	–	–	299 to 302.1	–	–	–	–	–
O=C(Nc1ccc(Oc2nccn3cnnc23)c(F)c1)c1cc(-c2cccs2)no1 [16l]	11.4 ± 0.76	12 ± 1.24	23.3 ± 2.12	0.725	–	–	–	–	–	–
Cc1nc(-c2ccccc2)sc1C(=O)Nc1ccc(Oc2nccn3cnnc23)c(F)c1 [16 g]	8.21 ± 0.65	9.17 ± 1.03	17.7 ± 1.29	0.658	278.1 to 282.7	–	–	–	–	–
Cc1nc(-c2ccncc2)sc1C(=O)Nc1ccc(Oc2nccn3c(C)nnc23)cc1 [17c]	7.68 ± 0.71	8.79 ± 0.89	15.9 ± 1.1	0.532	270.7 to 273.8	–	–	–	–	–
O=C(Nc1ccc(Oc2nccn3cnnc23)c(F)c1)c1cnn(-c2ccc(Cl)cc2)c1C(F)(F)F [16 k]	6.18 ± 0.34	6.51 ± 0.63	12.9 ± 1.06	0.38	–	–	–	–	–	–
Cc1nc(-c2ccccn2)sc1C(=O)Nc1ccc(Oc2nccn3cnnc23)c(F)c1 [16 h]	6.56 ± 0.42	8.18 ± 1.12	13.9 ± 1.59	0.437	203.4 to 207.6	–	–	–	–	–
Cc1nnc2c(Oc3ccc(NC(=O)c4cc(-c5cccs5)no4)cc3F)nccn12 [17 m]	8.84 ± 0.97	9.34 ± 1.03	17.4 ± 1.56	0.653	–	–	–	–	–	–
